Assays:
[1] = in vitro; details: human, huh-7
[2] = biological target: Fatty acid synthase (Rattus norvegicus, UniProt P12785)
[3] = tested on: Hepatitis C virus; assay: microbe, parasite or virus in culture; details: genotype 1b, Huh-7, 72 h
[4] = in vitro; details: dog, MDCK
[5] = in vitro; details: plasma

Sequence of Fatty acid synthase (P12785 whole entry): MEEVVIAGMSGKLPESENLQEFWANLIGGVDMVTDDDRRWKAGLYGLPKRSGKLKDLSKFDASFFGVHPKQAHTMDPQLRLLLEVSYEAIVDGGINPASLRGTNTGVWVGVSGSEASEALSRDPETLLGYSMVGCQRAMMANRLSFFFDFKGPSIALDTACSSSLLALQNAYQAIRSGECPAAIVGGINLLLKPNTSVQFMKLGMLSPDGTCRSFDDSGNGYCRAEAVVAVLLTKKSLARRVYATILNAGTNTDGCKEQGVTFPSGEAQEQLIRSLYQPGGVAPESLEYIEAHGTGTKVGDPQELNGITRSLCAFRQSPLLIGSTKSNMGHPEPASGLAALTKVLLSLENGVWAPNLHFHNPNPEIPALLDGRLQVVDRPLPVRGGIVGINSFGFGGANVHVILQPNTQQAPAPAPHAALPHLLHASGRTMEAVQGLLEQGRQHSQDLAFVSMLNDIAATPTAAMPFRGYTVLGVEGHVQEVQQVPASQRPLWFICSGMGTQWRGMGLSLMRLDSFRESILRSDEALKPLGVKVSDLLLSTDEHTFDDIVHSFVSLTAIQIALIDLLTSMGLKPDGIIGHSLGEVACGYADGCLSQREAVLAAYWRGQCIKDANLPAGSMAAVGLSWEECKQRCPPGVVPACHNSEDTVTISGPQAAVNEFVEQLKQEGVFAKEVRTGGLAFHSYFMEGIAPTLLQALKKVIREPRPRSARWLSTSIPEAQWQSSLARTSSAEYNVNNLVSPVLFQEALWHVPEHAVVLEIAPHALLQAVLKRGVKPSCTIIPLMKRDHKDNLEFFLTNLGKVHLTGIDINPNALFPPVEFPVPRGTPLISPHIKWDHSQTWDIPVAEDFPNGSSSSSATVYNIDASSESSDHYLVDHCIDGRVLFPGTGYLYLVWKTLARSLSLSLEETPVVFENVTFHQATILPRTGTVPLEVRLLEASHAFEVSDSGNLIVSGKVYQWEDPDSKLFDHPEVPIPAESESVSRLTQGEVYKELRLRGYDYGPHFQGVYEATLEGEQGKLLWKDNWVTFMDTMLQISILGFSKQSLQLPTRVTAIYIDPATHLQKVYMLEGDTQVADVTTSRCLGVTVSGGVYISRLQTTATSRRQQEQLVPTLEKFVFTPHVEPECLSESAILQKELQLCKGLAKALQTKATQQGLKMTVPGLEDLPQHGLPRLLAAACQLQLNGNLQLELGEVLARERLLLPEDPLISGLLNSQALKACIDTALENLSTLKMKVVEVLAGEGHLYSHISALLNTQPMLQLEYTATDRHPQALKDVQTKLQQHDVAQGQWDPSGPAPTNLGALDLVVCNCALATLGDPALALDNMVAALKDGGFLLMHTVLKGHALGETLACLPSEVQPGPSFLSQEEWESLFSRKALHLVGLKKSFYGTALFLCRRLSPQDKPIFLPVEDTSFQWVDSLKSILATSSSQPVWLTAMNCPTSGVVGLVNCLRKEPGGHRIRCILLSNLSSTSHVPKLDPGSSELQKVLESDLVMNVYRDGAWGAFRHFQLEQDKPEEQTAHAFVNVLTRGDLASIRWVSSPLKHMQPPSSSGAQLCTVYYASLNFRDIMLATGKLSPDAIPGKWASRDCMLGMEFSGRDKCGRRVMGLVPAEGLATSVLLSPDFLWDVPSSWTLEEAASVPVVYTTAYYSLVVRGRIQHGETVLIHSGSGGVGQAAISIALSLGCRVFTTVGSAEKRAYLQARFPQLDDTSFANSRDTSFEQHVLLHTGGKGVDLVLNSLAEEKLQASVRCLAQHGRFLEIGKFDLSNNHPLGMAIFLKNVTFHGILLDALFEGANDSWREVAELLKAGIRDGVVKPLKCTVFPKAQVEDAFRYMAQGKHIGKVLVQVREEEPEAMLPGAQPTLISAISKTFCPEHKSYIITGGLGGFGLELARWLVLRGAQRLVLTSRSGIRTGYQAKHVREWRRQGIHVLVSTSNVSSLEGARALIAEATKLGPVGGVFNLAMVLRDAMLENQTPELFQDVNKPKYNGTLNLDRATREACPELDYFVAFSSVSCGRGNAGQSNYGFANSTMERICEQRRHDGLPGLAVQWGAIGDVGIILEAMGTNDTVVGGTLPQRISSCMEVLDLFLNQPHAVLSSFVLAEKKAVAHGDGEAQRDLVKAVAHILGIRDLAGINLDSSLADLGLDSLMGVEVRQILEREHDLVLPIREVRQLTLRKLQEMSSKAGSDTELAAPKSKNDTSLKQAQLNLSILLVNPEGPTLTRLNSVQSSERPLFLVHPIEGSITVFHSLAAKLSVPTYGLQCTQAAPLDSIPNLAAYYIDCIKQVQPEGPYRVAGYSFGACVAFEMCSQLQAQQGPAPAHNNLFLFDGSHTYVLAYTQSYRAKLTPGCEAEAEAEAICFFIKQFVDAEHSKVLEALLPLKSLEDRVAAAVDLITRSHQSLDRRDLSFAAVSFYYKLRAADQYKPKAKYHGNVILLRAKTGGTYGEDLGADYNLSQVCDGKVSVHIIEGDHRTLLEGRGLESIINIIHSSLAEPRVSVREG

Row | SMILES | CC50 at 72 h [1] [nM] | IC50 [2] [nM] | EC50 [3] [nM] | Papp [4] [×10⁻⁶ cm/s] | half-life [5] [h] | IC50 [3] [nM]
1 | Cc1cc(C)c(-c2nc3cc(S(C)(=O)=O)cnc3[nH]2)cc1C(=O)N1CCC(c2ccc(C#N)cc2)CC1 | > 20000 | 3850 | 130 | – | – | –
2 | Cc1ccc(-c2nc3cc(N4CCCC4)ncc3[nH]2)cc1C(=O)N1CCC(c2ccc(C#N)cc2)CC1 | 8600 | – | 150 | – | – | –
3 | COCCN(C)c1cc2nc(-c3cc(C(=O)N4CCC(c5ccc(C#N)cc5)CC4)c(C)cc3C)[nH]c2cn1 | > 20000 | 316 | 84 | – | – | –
4 | Cc1ccc(C(=O)N2CCC(c3ccc(C#N)cc3)CC2)cc1-c1nc2cc(N3CCCC3)ncc2[nH]1 | > 20000 | – | 175 | 8 | > 10 | –
5 | Cc1ccc(C(=O)N2CCC(c3ccc(C#N)cc3)CC2)cc1-c1nc2ccccc2[nH]1 | – | > 50000 | – | – | – | > 50000
6 | Cc1ccc(C(=O)N2CCC(c3ccc(C#N)cc3)CC2)cc1NC(=O)c1ccc(N2CCCC2)nc1 | – | 3970 | – | – | – | –
7 | Cc1cc(C)c(-c2nc3nc(N4CCC4)ccc3[nH]2)cc1C(=O)N1CCC(c2ccc(C#N)cc2)CC1 | > 3000 | – | 310 | – | – | –
8 | Cc1cc(C(=O)N2CCC(c3ccc(C#N)cc3)CC2)cc(-c2nc3cc(N4CCCC4)ncc3[nH]2)c1 | > 10000 | – | > 10000 | – | – | –
9 | Cc1cc(C)c(-c2nc3cc(N4CCOCC4)ncc3[nH]2)cc1C(=O)N1CCC(c2ccc(C#N)cc2)CC1 | > 3000 | – | 40 | – | – | –
10 | Cc1c(C(=O)N2CCC(c3ccc(C#N)cc3)CC2)cccc1-c1nc2cc(N3CCCC3)ncc2[nH]1 | 1900 | – | > 10000 | – | – | –
11 | Cc1ccc(C(=O)N2CCC(c3ccc(C#N)cc3)CC2)cc1-c1nc2cc(N3CCC3)ncc2[nH]1 | > 20000 | – | 91 | – | – | –
12 | N#Cc1ccc(C2CCN(C(=O)c3cccc(-c4nc5cc(N6CCCC6)ncc5[nH]4)c3)CC2)cc1 | > 3000 | 2950 | 550 | – | – | –
13 | Cc1ccc(C(=O)N2CCC(c3ccc(C#N)cc3)CC2)cc1-c1nc2cc(N3CCN(C)CC3)ncc2[nH]1 | 15000 | – | 830 | – | – | –
14 | Cc1ccc(C(=O)N2CCC(c3ccc(C#N)cc3)CC2)cc1-c1nc2ccncc2[nH]1 | – | > 50000 | – | – | – | > 50000
